Results published in patent US20090304692A1, “TRIAZINE COMPOUNDS AS PI3 KINASE AND MTOR INHIBITORS” (Wyeth, priority 2008, published 2009).
Read-outs that look alike come from different tables or passages of the source.

How the values were obtained:
Human mTOR (FLAG-TOR) = Human mTOR (FLAG-TOR) (Homo sapiens, UniProt P42345); experiment: mTOR kinase assay (DELFIA format, purified enzyme); assay type: biochemical; details: read-out: IC50 mTOR
[1] = system: human prostate PC3-mm2 tumor cell line; experiment: In vitro cell culture growth assay (MTS), PC3-mm2; assay type: cell-based; details: Homo sapiens, PC3MM2, 72 h, MTS cell growth assay, three days after drug treatment, PC3-mm2 cells; read-out: IC50 PC3-mm2
PI3K-α = PI3K-α (Homo sapiens, UniProt P42336); experiment: PI3K-alpha fluorescence polarization assay; details: read-out: IC50 PI3Kα
PI3K-α, sequence (P42336 whole entry, species assumed): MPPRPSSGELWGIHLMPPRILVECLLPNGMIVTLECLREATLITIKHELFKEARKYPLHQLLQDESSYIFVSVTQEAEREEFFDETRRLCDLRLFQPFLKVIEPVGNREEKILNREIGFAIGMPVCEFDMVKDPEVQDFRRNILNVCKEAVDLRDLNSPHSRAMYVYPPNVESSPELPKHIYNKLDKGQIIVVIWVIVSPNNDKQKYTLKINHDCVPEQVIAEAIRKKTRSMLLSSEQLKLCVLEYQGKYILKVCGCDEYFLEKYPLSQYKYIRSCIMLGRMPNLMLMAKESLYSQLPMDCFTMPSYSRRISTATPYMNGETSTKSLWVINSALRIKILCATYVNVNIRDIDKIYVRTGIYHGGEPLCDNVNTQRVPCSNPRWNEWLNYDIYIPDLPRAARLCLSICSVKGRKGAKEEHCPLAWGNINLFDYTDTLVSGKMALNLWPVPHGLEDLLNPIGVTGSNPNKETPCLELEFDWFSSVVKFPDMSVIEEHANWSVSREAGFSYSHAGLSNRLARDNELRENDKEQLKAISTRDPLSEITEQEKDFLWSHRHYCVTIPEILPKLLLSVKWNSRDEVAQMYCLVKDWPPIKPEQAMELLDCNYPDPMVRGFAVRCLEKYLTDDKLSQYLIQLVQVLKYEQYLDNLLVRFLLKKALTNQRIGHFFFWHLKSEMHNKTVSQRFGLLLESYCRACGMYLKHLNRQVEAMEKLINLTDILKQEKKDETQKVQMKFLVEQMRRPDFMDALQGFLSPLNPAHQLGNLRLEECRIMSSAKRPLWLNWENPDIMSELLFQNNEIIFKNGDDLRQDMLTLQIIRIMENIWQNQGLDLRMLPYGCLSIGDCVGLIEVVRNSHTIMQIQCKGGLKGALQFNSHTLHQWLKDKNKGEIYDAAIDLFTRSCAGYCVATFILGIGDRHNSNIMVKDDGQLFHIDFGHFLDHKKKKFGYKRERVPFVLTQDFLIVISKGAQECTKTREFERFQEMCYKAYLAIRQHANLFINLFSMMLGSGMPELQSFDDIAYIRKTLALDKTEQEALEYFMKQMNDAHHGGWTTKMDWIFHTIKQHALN
PI3K-α, sequence (P27986 whole entry partner, species assumed): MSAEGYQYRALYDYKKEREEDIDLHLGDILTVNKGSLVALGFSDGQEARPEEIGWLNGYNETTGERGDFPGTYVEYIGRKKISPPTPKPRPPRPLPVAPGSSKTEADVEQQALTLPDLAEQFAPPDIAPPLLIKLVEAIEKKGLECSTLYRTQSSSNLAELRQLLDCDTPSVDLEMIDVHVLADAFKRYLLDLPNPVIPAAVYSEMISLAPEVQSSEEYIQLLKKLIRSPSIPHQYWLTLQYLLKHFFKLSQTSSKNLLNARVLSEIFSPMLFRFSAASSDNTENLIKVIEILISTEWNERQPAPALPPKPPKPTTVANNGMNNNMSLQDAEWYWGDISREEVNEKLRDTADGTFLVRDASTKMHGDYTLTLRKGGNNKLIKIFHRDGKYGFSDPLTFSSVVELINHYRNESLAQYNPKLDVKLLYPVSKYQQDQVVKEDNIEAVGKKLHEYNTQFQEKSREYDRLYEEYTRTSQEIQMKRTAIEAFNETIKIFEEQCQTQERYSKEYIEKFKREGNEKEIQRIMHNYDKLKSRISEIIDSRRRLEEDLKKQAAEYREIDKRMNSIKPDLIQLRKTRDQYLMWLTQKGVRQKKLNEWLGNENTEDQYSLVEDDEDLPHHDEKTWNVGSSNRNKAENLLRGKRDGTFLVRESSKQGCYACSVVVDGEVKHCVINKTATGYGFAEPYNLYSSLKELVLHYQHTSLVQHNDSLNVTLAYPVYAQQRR

[2] = system: human breast MDA-MB-361 tumor cell line; experiment: In vitro cell culture growth assay (MTS), MDA-MB-361; assay type: cell-based; details: Homo sapiens, MTS cell growth assay, three days after drug treatment, MDA-MB-361 cells, read-out: IC50 MDA-MB-361
PI3K-γ = PI3K-γ (Homo sapiens, UniProt P48736); experiment: PI3K-gamma fluorescence polarization assay; details: read-out: IC50 PI3Kγ
PI3K-γ, sequence (P48736 whole entry, species assumed): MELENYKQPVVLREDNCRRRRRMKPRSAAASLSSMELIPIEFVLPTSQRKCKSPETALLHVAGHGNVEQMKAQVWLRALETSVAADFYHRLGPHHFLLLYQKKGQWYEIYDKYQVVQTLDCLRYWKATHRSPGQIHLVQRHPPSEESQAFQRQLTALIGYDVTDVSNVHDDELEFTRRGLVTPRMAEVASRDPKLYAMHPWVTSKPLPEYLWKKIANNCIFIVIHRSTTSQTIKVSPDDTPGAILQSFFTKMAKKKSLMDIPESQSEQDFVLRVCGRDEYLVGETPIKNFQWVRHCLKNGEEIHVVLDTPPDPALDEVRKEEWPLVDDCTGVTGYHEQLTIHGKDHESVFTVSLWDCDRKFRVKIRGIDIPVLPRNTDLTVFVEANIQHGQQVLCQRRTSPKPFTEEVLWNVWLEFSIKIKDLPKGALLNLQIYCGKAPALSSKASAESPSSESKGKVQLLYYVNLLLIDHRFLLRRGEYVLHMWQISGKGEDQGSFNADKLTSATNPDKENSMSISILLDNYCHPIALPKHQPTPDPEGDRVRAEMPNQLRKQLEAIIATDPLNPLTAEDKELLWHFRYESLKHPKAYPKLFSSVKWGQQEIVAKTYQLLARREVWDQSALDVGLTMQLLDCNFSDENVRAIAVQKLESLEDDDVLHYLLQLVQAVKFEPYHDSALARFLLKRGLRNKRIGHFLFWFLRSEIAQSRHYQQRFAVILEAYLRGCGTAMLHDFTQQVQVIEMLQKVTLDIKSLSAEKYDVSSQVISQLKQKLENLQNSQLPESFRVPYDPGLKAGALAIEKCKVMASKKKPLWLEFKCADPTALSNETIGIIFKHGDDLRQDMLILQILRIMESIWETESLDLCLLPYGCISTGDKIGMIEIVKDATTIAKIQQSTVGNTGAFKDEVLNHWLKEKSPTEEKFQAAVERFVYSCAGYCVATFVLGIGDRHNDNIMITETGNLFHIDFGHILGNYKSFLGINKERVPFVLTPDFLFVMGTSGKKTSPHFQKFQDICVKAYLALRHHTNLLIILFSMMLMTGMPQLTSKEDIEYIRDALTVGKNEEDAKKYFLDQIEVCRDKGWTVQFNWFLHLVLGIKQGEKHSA

Human mTOR (FLAG-TOR), sequence (P42345 1360-2549 limits assumed): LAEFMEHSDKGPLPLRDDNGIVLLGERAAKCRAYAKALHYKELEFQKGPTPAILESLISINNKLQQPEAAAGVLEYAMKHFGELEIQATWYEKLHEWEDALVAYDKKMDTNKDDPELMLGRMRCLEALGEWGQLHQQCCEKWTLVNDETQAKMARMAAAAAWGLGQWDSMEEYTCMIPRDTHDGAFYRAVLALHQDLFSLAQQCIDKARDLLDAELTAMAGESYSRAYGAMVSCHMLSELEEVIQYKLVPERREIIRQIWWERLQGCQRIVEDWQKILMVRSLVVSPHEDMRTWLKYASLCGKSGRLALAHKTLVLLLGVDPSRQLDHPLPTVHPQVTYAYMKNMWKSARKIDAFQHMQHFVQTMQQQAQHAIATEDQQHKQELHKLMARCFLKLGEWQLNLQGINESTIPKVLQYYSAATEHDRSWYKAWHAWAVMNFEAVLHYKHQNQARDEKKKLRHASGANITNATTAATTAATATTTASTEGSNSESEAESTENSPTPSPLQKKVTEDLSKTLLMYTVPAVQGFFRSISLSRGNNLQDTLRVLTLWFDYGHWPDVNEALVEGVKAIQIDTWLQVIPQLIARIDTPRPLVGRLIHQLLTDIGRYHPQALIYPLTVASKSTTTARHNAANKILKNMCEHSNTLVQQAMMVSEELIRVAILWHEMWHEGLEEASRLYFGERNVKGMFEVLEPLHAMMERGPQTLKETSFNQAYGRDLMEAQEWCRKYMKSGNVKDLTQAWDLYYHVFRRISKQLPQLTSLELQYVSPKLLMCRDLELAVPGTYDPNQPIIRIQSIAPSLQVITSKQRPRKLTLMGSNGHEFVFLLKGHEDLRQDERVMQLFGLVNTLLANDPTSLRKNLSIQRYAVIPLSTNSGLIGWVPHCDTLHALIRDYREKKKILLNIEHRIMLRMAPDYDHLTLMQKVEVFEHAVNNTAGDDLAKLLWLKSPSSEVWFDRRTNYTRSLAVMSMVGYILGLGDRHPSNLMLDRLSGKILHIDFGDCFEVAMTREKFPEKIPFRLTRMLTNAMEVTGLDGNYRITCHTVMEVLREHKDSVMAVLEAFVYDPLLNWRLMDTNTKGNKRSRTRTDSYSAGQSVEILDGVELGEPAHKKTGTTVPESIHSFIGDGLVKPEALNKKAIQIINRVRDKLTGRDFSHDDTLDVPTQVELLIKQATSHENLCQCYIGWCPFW

Row | Compound | IC50 (Human mTOR (FLAG-TOR)) | IC50 [1] | IC50 (PI3K-α) | IC50 ([2]; 72 h) | IC50 (PI3K-γ) | IC50 ([2]; MDA-MB-361, 72 h)
1 | O=C(Nc1ccc(C(=O)NCCN2CCCC2)cc1)Nc1ccc(-c2nc(-c3ccccc3)nc(N3CCOCC3)n2)cc1 [Example 552, 4-({[4-(4-morpholin-4-yl-6-phenyl-1,3,5-triazin-2-yl)phenyl]carbamoyl}amino)-N-(2-pyrrolidin-1-ylethyl)benzamide] | 0.00355 µM | 0.243 µM | 0.0115 µM | 0.105 µM | 0.127 µM | 
2 | Cc1ccc(-c2nc(-c3ccc(NC(=O)Nc4ccc(C(=O)NCCCN(C)C)cc4)cc3)nc(N3CCOCC3)n2)cc1 [Example 554, N-[3-(dimethylamino)propyl]-4-[({4-[4-(4-methylphenyl)-6-morpholin-4-yl-1,3,5-triazin-2-yl]phenyl}carbamoyl)amino]benzamide] | 0.0119 µM | > 1 µM | 0.015 µM | 0.521 µM | 0.157 µM | 
3 | CN(C)CCCNC(=O)c1ccc(NC(=O)Nc2ccc(-c3nc(-c4ccccc4)nc(N4CCOCC4)n3)cc2)cc1 [Example 556, N-[3-(dimethylamino)propyl]-4-({[4-(4-morpholin-4-yl-6-phenyl-1,3,5-triazin-2-yl)phenyl]carbamoyl}amino)benzamide] | 0.0044 µM | 0.379 µM | 0.0085 µM | 0.128 µM | 0.054 µM | 
4 | O=C(Nc1ccncc1)Nc1ccc(-c2nc(-c3cccs3)nc(N3CCOCC3)n2)cc1 [Example 557, 1-{4-[4-morpholin-4-yl-6-(2-thienyl)-1,3,5-triazin-2-yl]phenyl}-3-pyridin-4-ylurea] | 0.00855 µM | 0.031 µM | 0.018 µM | 0.034 µM | 0.064 µM | 
5 | O=C(Nc1ccc(C(=O)O)cc1)Nc1ccc(-c2nc(-c3cccs3)nc(N3CCOCC3)n2)cc1 [Example 558, 4-[({4-[4-morpholin-4-yl-6-(2-thienyl)-1,3,5-triazin-2-yl]phenyl}carbamoyl)amino]benzoic acid] | 0.0061 µM | 0.939 µM | 0.017 µM | 0.751 µM | 0.041 µM | 
6 | CN1CCN(C(=O)c2ccc(NC(=O)Nc3ccc(-c4nc(-c5cccs5)nc(N5CCOCC5)n4)cc3)cc2)CC1 [Example 559, 1-{4-[(4-methylpiperazin-1-yl)carbonyl]phenyl}-3-{4-[4-morpholin-4-yl-6-(2-thienyl)-1,3,5-triazin-2-yl]phenyl}urea] | 0.0101 µM | 0.149 µM | 0.002 µM |  | 0.0135 µM | 0.008 µM
7 | COCCNC(=O)c1ccc(NC(=O)Nc2ccc(-c3nc(-c4cccs4)nc(N4CCOCC4)n3)cc2)cc1 [Example 561, N-(2-methoxyethyl)-4-[({4-[4-morpholin-4-yl-6-(2-thienyl)-1,3,5-triazin-2-yl]phenyl}carbamoyl)amino]benzamide] | 0.006 µM | 0.218 µM | 0.0115 µM | 0.066 µM | 0.059 µM | 
8 | CN(C)CCN(C)C(=O)c1ccc(NC(=O)Nc2ccc(-c3nc(-c4cccs4)nc(N4CCOCC4)n3)cc2)cc1 [Example 562, N-[2-(dimethylamino)ethyl]-N-methyl-4-[({4-[4-morpholin-4-yl-6-(2-thienyl)-1,3,5-triazin-2-yl]phenyl}carbamoyl)amino]benzamide] | 0.004 µM | 0.093 µM | 0.001 µM | 0.003 µM | 0.0105 µM | 
9 | CN(C)CCNC(=O)c1ccc(NC(=O)Nc2ccc(-c3nc(-c4cccs4)nc(N4CCOCC4)n3)cc2)cc1 [Example 563, N-[2-(dimethylamino)ethyl]-4-[({4-[4-morpholin-4-yl-6-(2-thienyl)-1,3,5-triazin-2-yl]phenyl}carbamoyl)amino]benzamide] | 0.003 µM | 0.171 µM | 0.0025 µM | 0.01 µM | 0.0335 µM | 
10 | C[C@H]1COCCN1c1nc(-c2ccc(NC(=O)Nc3ccc(C(=O)N(C)CCN(C)C)cc3)cc2)nc(N2CCOC[C@@H]2C)n1 [Example 564, 4-{[(4-{4,6-bis[(3S)-3-methylmorpholin-4-yl]-1,3,5-triazin-2-yl}phenyl)carbamoyl]amino}-N-[2-(dimethylamino)ethyl]-N-methylbenzamide] | 0.001 µM | 0.007 µM | 0.0006 µM | 0.001 µM | 0.0165 µM | 

The remaining lines, values ahead:

Row | IC50 (Human mTOR (FLAG-TOR)) | IC50 [1] | IC50 (PI3K-α) | IC50 ([2]; 72 h) | IC50 (PI3K-γ) | IC50 ([2]; MDA-MB-361, 72 h) | Compound
11 | 0.001 µM | 0.027 µM | 0.0041 µM | 0.009 µM | 0.038 µM |  | C[C@H]1COCCN1c1nc(-c2ccc(NC(=O)Nc3ccc(C(=O)N4CCN(C)CC4)cc3)cc2)nc(N2CCOC[C@@H]2C)n1 [Example 565, 1-(4-{4,6-bis[(3S)-3-methylmorpholin-4-yl]-1,3,5-triazin-2-yl}phenyl)-3-{4-[(4-methylpiperazin-1-yl)carbonyl]phenyl}urea]
12 | 0.002 µM | 0.055 µM | 0.0026 µM | 0.028 µM | 0.018 µM |  | O=C(Nc1ccncc1)Nc1ccc(-c2nc(N3CCCOCC3)nc(N3CCOCC3)n2)cc1 [Example 566, 1-{4-[4-morpholin-4-yl-6-(1,4-oxazepan-4-yl)-1,3,5-triazin-2-yl]phenyl}-3-pyridin-4-ylurea]
13 | 0.002 µM | 0.13 µM | 0.0145 µM |  | 0.09 µM | 0.106 µM | COC(=O)c1ccc(NC(=O)Nc2ccc(-c3nc(N4CCCOCC4)nc(N4CCOCC4)n3)cc2)cc1 [Example 567, methyl 4-[({4-[4-morpholin-4-yl-6-(1,4-oxazepan-4-yl)-1,3,5-triazin-2-yl]phenyl}carbamoyl)amino]benzoate]
14 | 0.013 µM | 0.344 µM | 0.0055 µM | 0.028 µM | 0.048 µM |  | CN(C)CCCNC(=O)c1ccc(NC(=O)Nc2ccc(-c3nc(-c4cccs4)nc(N4CCOCC4)n3)cc2)cc1 [Example 570, N-[3-(dimethylamino)propyl]-4-[({4-[4-morpholin-4-yl-6-(2-thienyl)-1,3,5-triazin-2-yl]phenyl}carbamoyl)amino]benzamide]
15 | 0.006 µM | 0.025 µM | 0.001 µM | 0.006 µM | 0.0125 µM |  | COCCNC(=O)c1ccc(NC(=O)Nc2ccc(-c3nc(N4CCCOCC4)nc(N4CCOCC4)n3)cc2)cc1 [Example 574, N-(2-methoxyethyl)-4-[({4-[4-morpholin-4-yl-6-(1,4-oxazepan-4-yl)-1,3,5-triazin-2-yl]phenyl}carbamoyl)amino]benzamide]
16 | 0.015 µM | 0.242 µM | 0.003 µM | 0.015 µM | 0.019 µM |  | CCN1CCN(C(=O)c2ccc(NC(=O)Nc3ccc(-c4nc(-c5cccs5)nc(N5CCOCC5)n4)cc3)cc2)CC1 [Example 575, 1-{4-[(4-ethylpiperazin-1-yl)carbonyl]phenyl}-3-{4-[4-morpholin-4-yl-6-(2-thienyl)-1,3,5-triazin-2-yl]phenyl}urea]
17 | 0.009 µM | 0.718 µM | 0.0255 µM | 0.239 µM | 0.122 µM |  | O=C(Nc1ccncc1)Nc1ccc(-c2nc(N3CCCCC3)nc(N3CCOCC3)n2)cc1 [Example 592, 1-[4-(4-morpholin-4-yl-6-piperidin-1-yl-1,3,5-triazin-2-yl)phenyl]-3-pyridin-4-ylurea]
18 | 0.012 µM | > 1 µM | 0.04 µM |  | 0.143 µM | > 1 µM | O=C(Nc1ccc(C(=O)O)cc1)Nc1ccc(-c2nc(N3CCCCC3)nc(N3CCOCC3)n2)cc1 [Example 593, 4-({[4-(4-morpholin-4-yl-6-piperidin-1-yl-1,3,5-triazin-2-yl)phenyl]carbamoyl}amino)benzoic acid]
19 | 0.013 µM | 0.155 µM | 0.005 µM |  | 0.0405 µM | 0.026 µM | CCN1CCN(C(=O)c2ccc(NC(=O)Nc3ccc(-c4nc(N5CCCCC5)nc(N5CCOCC5)n4)cc3)cc2)CC1 [Example 596, 1-{4-[(4-ethylpiperazin-1-yl)carbonyl]phenyl}-3-[4-(4-morpholin-4-yl-6-piperidin-1-yl-1,3,5-triazin-2-yl)phenyl]urea]
20 | 0.011 µM | 0.229 µM | 0.005 µM |  | 0.058 µM | 0.045 µM | CN1CCN(C(=O)c2ccc(NC(=O)Nc3ccc(-c4nc(N5CCCCC5)nc(N5CCOCC5)n4)cc3)cc2)CC1 [Example 597, 1-{4-[(4-methylpiperazin-1-yl)carbonyl]phenyl}-3-[4-(4-morpholin-4-yl-6-piperidin-1-yl-1,3,5-triazin-2-yl)phenyl]urea]
21 | 0.01 µM | 0.214 µM | 0.0055 µM |  | 0.04 µM | 0.022 µM | CN(C)C1CCN(C(=O)c2ccc(NC(=O)Nc3ccc(-c4nc(N5CCCCC5)nc(N5CCOCC5)n4)cc3)cc2)CC1 [Example 598, 1-(4-{[4-(dimethylamino)piperidin-1-yl]carbonyl}phenyl)-3-[4-(4-morpholin-4-yl-6-piperidin-1-yl-1,3,5-triazin-2-yl)phenyl]urea]
22 | 0.011 µM | 0.122 µM | 0.007 µM |  | 0.0465 µM | 0.017 µM | CN(C)C1CCN(C(=O)c2ccc(NC(=O)Nc3ccc(-c4nc(N5CCCC5)nc(N5CCOCC5)n4)cc3)cc2)CC1 [Example 602, 1-(4-{[4-(dimethylamino)piperidin-1-yl]carbonyl}phenyl)-3-[4-(4-morpholin-4-yl-6-pyrrolidin-1-yl-1,3,5-triazin-2-yl)phenyl]urea]
